Results published in patent US4175081A, “5-Substituted thiadiazole ureas” (priority 1977, dated 1979).

Key:
Crabgrass (CG) [1] = assay: Pre-emergence herbicide test; assay type: in vivo, Digitaria sanquinalis; settings: Digitaria sanguinalis, pre-emergence, 336 h; 8 lb/acre; two weeks after treatment
Procedure, shortened: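 Crabgrass (Digitaria sanquinalis) was surface seeded in 3' plastic pots of potting soil, covered with screened soil, and watered by sub-irrigation in greenhouse trays. Pots were seeded one day before spraying in a hood with a moving belt and fixed nozzle. Plants stayed in the greenhouse on sub-irrigation, and pre-emergence control was rated visually two weeks after treatment.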

[2] = test system: Yellow foxtail grass (YF); assay: Pre-emergence herbicide test; assay type: in vivo, Setaria glauca; settings: Setaria, 336 h, 8 lb/acre, two weeks after treatment
Protocol: Yellow foxtail grass (YF)--Setaria glauca
All crop and weed species were planted individually in 3' plastic pots containing potting soil. Four seeds each of corn, cotton, and snapbeans were seeded to a depth equal to the diameter of the seed. All other species were surface seeded and sprinkled with screened soil in an amount sufficient to cover the seed. Immediately after planting, all pots were watered by sub-irrigation in greenhouse trays. Pots for the pre-emergence phase were seeded one day before treatment.
Compounds were tested at rates of application equivalent to 8 lbs. of actual compound per acre in a spray volume of 38 gallons per acre. Spray hood constants required to deliver the above volume are as follows:
Formulations for spray applications were prepared in 50 ml volumes with the following three components:
Formulations for the 4 lbs/acre rate were prepared by adjusting the amount of active ingredient accordingly.
Spray applications were made in a hood containing a removable belt and fixed spray nozzle. For passage through the spray hood, one pot of each specie (pre-emergence phase) was placed on the rear half of the flat. Treatments were removed to the greenhouse after spraying. Watering during the observation period was done only by sub-irrigation.
Two weeks after treatment, pre- and post-emergence injury or control was visually rated, and the results were as shown in the following tables. Pre-emergence data are provided in TABLE III and post-emergence data are provided in TABLE IV, for compounds having the formula illustrated in TABLE I. Correspondingly, pre-emergence and post-emergence data, respectively, are set forth in TABLES V AND VI, for compounds having the formula illustrated in TABLE II.

Johnson grass (JG) [3] = assay: Pre-emergence herbicide test; assay type: in vivo, Sorgum helepense; settings: Sorghum halepense, 336 h, 8 lb/acre, two weeks after treatment
Procedure, shortened: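 Pots seeded one day before spraying; compound applied pre-emergence at 8 lbs/acre (or 4 lbs/acre) in 38 gallons/acre spray volume. Sub-irrigated in greenhouse; injury/control rated visually two weeks after treatment.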

Barnyard grass (BG) [4] = assay: Pre-emergence herbicide test; assay type: in vivo; settings: Echinochloa crus-galli, 336 h, 8 lb/acre, two weeks after treatment
Procedure, shortened: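 Barnyard grass surface-seeded in potting soil and sprayed pre-emergence one day after seeding, at 8 or 4 lb compound/acre in 38 gal/acre spray volume. Pots kept in greenhouse with sub-irrigation only; injury or control rated visually two weeks after treatment.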

Amaranth pigweed (PW) [5] = assay: Pre-emergence herbicide test; assay type: in vivo, Amaranthus retroflexus; settings: 336 h, 8 lb/acre, two weeks after treatment
Procedure, shortened: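 Pigweed was surface-seeded in potted soil one day before spraying at 8 lbs compound per acre, or 4 lbs/acre, in 38 gallons per acre. Pots were kept in the greenhouse with sub-irrigation only; injury or control was rated visually two weeks after treatment.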

Turnip (TP) [6] = assay: Pre-emergence herbicide test; assay type: in vivo, Brassica sp.; settings: Brassica rapa, pre-emergence, 336 h; 8 lb/acre; two weeks after treatment
Procedure, shortened: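 Turnip (Brassica sp.) seeds were surface sown in 3' plastic pots of potting soil, covered with a thin layer of screened soil, and sub-irrigated in greenhouse trays. Pots were seeded one day ahead of treatment, sprayed pre-emergence under a hood with a fixed nozzle and moving belt, then kept in the greenhouse.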

Cotton (CT) [7] = assay: Pre-emergence herbicide test; assay type: in vivo, Gossypium hirsutum var. DPL smooth leaf; settings: Gossypium hirsutum, 336 h, 8 lb/acre, two weeks after treatment
Procedure, shortened: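 Crop and weed species seeded one day before treatment, then sprayed pre-emergence at 8 lbs actual compound per acre (also 4 lbs/acre formulations) in 38 gallons per acre. Pots kept in greenhouse with sub-irrigation only; injury or control visually rated two weeks after treatment.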

Corn (CN) [8] = assay: Pre-emergence herbicide test; assay type: in vivo; settings: Zea mays, 336 h, 8 lb/acre, two weeks after treatment
Procedure, shortened: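 Four corn seeds per pot, sown at seed-diameter depth one day before spraying, got soil surface treatment at 8 lbs/acre (4 lbs/acre formulations also prepared) in 38 gallons/acre. Pots were greenhouse-held with sub-irrigation only. Injury or control was scored visually two weeks after treatment.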

Bean (BN) [9] = assay: Pre-emergence herbicide test; assay type: in vivo, Phaseolus vulgaris var. Black Valentine; settings: Phaseolus vulgaris, 336 h, 8 lb/acre, two weeks after treatment
Procedure, shortened: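 Black Valentine bean was seeded in potting soil one day before spraying. Compound was applied pre-emergence at 8 lbs/acre (also 4 lbs/acre) in 38 gallons per acre. Plants were sub-irrigated and injury or control was rated visually after two weeks.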

Crabgrass (CG) [10] = assay: Post-emergence herbicide test; assay type: in vivo, Digitaria sanquinalis; settings: Digitaria sanguinalis, post-emergence, 336 h; 8 lb/acre; two weeks after treatment
Procedure, shortened: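 Crabgrass (Digitaria sanquinalis) was surface seeded individually in 3' plastic pots of potting soil, covered with screened soil, and watered by sub-irrigation in greenhouse trays. Planting was staggered so seedlings reached the target stage together. Post-emergence sprays were applied in a hood with a removable belt and fixed nozzle, and control was visually rated two weeks after treatment.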

[11] = test system: Yellow foxtail grass (YF); assay: Post-emergence herbicide test; assay type: in vivo, Setaria glauca; settings: Setaria, 336 h, 8 lb/acre, two weeks after treatment
Procedure, shortened: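 Potted seedlings grown in greenhouse, planting staggered to reach the target stage together, then sprayed post-emergence at 8 lbs actual compound/acre in 38 gallons/acre (4 lbs/acre formulations also prepared). Sub-irrigated afterwards. Injury or control rated visually two weeks after treatment.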

Johnson grass (JG) [12] = assay: Post-emergence herbicide test; assay type: in vivo, Sorgum helepense; settings: Sorghum halepense, 336 h, 8 lb/acre, two weeks after treatment
Procedure, shortened: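 Greenhouse pot-grown seedlings sprayed post-emergence at 8 lbs compound per acre (some at 4 lbs/acre) in 38 gallons per acre spray volume. Sub-irrigated thereafter. Injury/control rated visually two weeks after treatment.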

Barnyard grass (BG) [13] = assay: Post-emergence herbicide test; assay type: in vivo; settings: Echinochloa crus-galli, 336 h, 8 lb/acre, two weeks after treatment
Procedure, shortened: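 Greenhouse pot-grown barnyard grass seedlings sprayed post-emergence at 8 lbs active compound per acre (some at 4 lbs/acre) in 38 gallons per acre, then sub-irrigated. Injury or control rated visually two weeks after treatment.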

Amaranth pigweed (PW) [14] = assay: Post-emergence herbicide test; assay type: in vivo, Amaranthus retroflexus; settings: 336 h, 8 lb/acre, two weeks after treatment
Procedure, shortened: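 Pot-grown pigweed was sprayed post-emergence at the 1–2 true-leaf stage with compound at rates equivalent to 8 lbs per acre (formulations also prepared for 4 lbs/acre) in 38 gallons per acre, using a hood with fixed nozzle. Plants were sub-irrigated in the greenhouse, and injury or control was rated visually two weeks after treatment.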

Turnip (TP) [15] = assay: Post-emergence herbicide test; assay type: in vivo, Brassica sp.; settings: Brassica rapa, post-emergence, 336 h; 8 lb/acre; two weeks after treatment
Procedure, shortened: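 A greenhouse post-emergence herbicide test on turnip. Seeds were sown on the surface of potting soil in 3' plastic pots, lightly covered with screened soil and watered from below. Planting was timed so seedlings had 1 or 2 true leaves above the cotyledons at spraying, done in a hood with a fixed nozzle. Control or injury was scored by eye after two weeks.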

Cotton (CT) [16] = assay: Post-emergence herbicide test; assay type: in vivo, Gossypium hirsutum var. DPL smooth leaf; settings: Gossypium hirsutum, post-emergence, 336 h; 8 lb/acre; two weeks after treatment
Procedure, shortened: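 Cotton (Gossypium hirsutum var. DPL smooth leaf) was grown in 3' plastic pots of potting soil, four seeds per pot, planted at a depth equal to the seed diameter and watered by sub-irrigation. At the stage of expanded cotyledons with the first true leaf 1' long, plants were sprayed post-emergence in a hood with a fixed nozzle over a moving belt. Percent control was rated visually two weeks later.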

Corn (CN) [17] = assay: Post-emergence herbicide test; assay type: in vivo; settings: Zea mays, 336 h, 8 lb/acre, two weeks after treatment
Procedure, shortened: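 Greenhouse seedlings grown in potting soil and sprayed post-emergence at 8 lbs compound/acre (formulations also made for 4 lbs/acre) in 38 gallons/acre spray volume. Watering by sub-irrigation only. Injury or control rated visually two weeks after treatment.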

Bean (BN) [18] = assay: Post-emergence herbicide test; assay type: in vivo, Phaseolus vulgaris var. Black Valentine; settings: Phaseolus vulgaris, post-emergence, 336 h; 8 lb/acre; two weeks after treatment
Procedure, shortened: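 Snapbean (Phaseolus vulgaris var. Black Valentine) was tested post-emergence. Four seeds were sown in 3' plastic pots of potting soil at a depth equal to the seed diameter, then sub-irrigated in greenhouse trays. Planting dates were staggered so plants were sprayed once primary leaves had expanded, with the growing point at the primary leaf nodes.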

Structure (SMILES)	pest or weed control at 8966.8 g/ha (Crabgrass (CG) [1]) [%]	pest or weed control at 8966.8 g/ha [2] [%]	pest or weed control at 8966.8 g/ha (Johnson grass (JG) [3]) [%]	pest or weed control at 8966.8 g/ha (Barnyard grass (BG) [4]) [%]	pest or weed control at 8966.8 g/ha (Amaranth pigweed (PW) [5]) [%]	pest or weed control at 8966.8 g/ha (Turnip (TP) [6]) [%]	pest or weed control at 8966.8 g/ha (Cotton (CT) [7]) [%]	pest or weed control at 8966.8 g/ha (Corn (CN) [8]) [%]	pest or weed control at 8966.8 g/ha (Bean (BN) [9]) [%]	pest or weed control at 8966.8 g/ha (Crabgrass (CG) [10]) [%]	pest or weed control at 8966.8 g/ha [11] [%]	pest or weed control at 8966.8 g/ha (Johnson grass (JG) [12]) [%]	pest or weed control at 8966.8 g/ha (Barnyard grass (BG) [13]) [%]	pest or weed control at 8966.8 g/ha (Amaranth pigweed (PW) [14]) [%]	pest or weed control at 8966.8 g/ha (Turnip (TP) [15]) [%]	pest or weed control at 8966.8 g/ha (Cotton (CT) [16]) [%]	pest or weed control at 8966.8 g/ha (Corn (CN) [17]) [%]	pest or weed control at 8966.8 g/ha (Bean (BN) [18]) [%]
CCCNC(=O)Nc1nnc(SC)s1 [Example 29]	20	10	10	10	10	0	30	30	80	30	20	20	20	40	40	60	20	100
C=CCNC(=O)Nc1nnc(SC)s1 [Example 31]	70	70	20	30	20	30	30	10	80	30	30	30	20	90	50	100	20	100
CCSc1nnc(NC(=O)NC)s1 [Example 32]	90	90	70	90	100	90	50	70	80	100	90	90	100	100	90	100	60	100
